Several values for one entry are separate records, joined by “and”; a condition that tells them apart may be missing. Equal values may be shown once.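 Following 48 hours of exposure in 96-well plates, responses at five concentrations were used to interpolate endpoints linearly. GI50 marks 50% less growth. TGI marks complete inhibition of growth.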

These results are taken from PubChem BioAssay (NCI).

Holding throughout (assay): DTP human tumour cell line panel, 48 h
Assay [1] has as its system DU-145 prostate.
For assay [2], the system named is HCT-15 colon.
The test system of assay [3] is LOX IMVI melanoma.
The subject of assay [4] is M14 melanoma.
In assay [5] the test system is MDA-MB-435.
Assay [6] deals with MDA-N.
The test system of assay [7] is NCI/ADR-RES ovarian.
The test system of assay [8] is SNB-19 CNS.
Assay [9] deals with T-47D breast.
The subject of assay [10] is DMS 114 small cell lung.
The test system of assay [11] is LXFL 529 NSCLC.
Assay [12] has as its system UACC-62 melanoma.
For assay [13], the system named is 786-0 renal.

Take `Cc1ccc(S(=O)(=O)NCCSCCNS(=O)(=O)c2ccc(C)cc2)cc1`: the TGI in assay [1], in assay [2], in assay [3], in assay [4], in [5] and in assay [6] was > 100 µM in each case. Also, the TGI in [7], in assay [8] and in [9] was > 100 µM throughout.
In the case of `Cc1ccc(Oc2ccc(C)cc2[N+](=O)[O-])cc1`, the total growth inhibition concentration (TGI) in [10], in assay [2], in assay [3], in assay [11], in assay [4] and in [12] was > 100 µM throughout.
With `O=S(=O)(Sc1ccc(Cl)cc1)c1ccc(Cl)cc1`, the total growth inhibition concentration (TGI) in assay [13] amounted to 29.5 µM; in assay [10], 28.6 µM; in assay [2] it was 40.2 µM; in assay [3] it was 24.8 µM; in assay [11], 32.7 µM; in [4], 32.5 µM. Also, the TGI in assay [8] stood at 65 µM; in assay [12] it was 31.4 µM.
As to `CCOC(=O)/C(Cl)=C(\C)Nc1nc2c(ccc3ccccc32)s1`, the TGI is 46.6 µM in assay [1]; > 100 µM in assay [2]; > 100 µM in assay [4]; > 100 µM in assay [6]; > 100 µM in assay [7]; > 100 µM in assay [8]. In addition, the TGI was 43.6 µM in assay [9] and > 100 µM in [12].
Turning to `Cc1cc(NCc2cc(Nc3ccnc4cc(Cl)ccc34)ccc2F)nc(N2CCCC2)n1`, the values for the GI50 in assay [1], in [5] and in [8] were 1.94 µM, 1.61 µM and 2.82 µM, respectively. Besides, the TGI in [1] was found to be 4.46 µM; in [5], 3.01 µM; in assay [8], 10.1 µM.
With `O=c1ccc2cc(O)c(O)cc2o1`, the TGI in [13], in assay [1], in assay [2], in [3], in assay [4] and in [5] was > 100 µM throughout. Also, the TGI in [6], in [7], in [8], in assay [9] and in assay [12] was > 100 µM in each case.
Regarding `COc1ccc(N2C(=O)C3c4[nH]c5c(C)cccc5c4C4CCC(C(C)(C)C)CC4C3C2=O)cc1` (stereo not drawn), the TGI in [1] was > 10 µM; in assay [2], > 10 µM; in [3] it was 4.17 µM; in assay [4], > 10 µM; in assay [5], > 10 µM; in assay [6], > 10 µM. Moreover, the TGI in assay [7], in [8], in assay [9] and in [12] was > 10 µM each time.
Consider `CN(C)CCNc1nc(-c2ccc3ccccc3c2)nc2nc[nH]c12`, for which the TGI in [13] came to 32.1 µM; in [1], 23.7 µM; in [2], 18.3 µM; in assay [3], 18.8 µM; in assay [4], 23.6 µM; in [5], 25 µM. Also, the TGI came to 23.2 µM in assay [6]; 22.9 µM in assay [7]; 28.1 µM in [8]; 29.7 µM in assay [9]; 22.9 µM in assay [12].
For `CC(=O)C(O)N1C(=O)C=CC1=O` (stereo not drawn), the GI50 in [10] is 19.6 µM; in assay [1] it was 11700 µM; in assay [11], 15.3 µM; in [5] it was 10700 µM; in [7] it was 12000 µM; in [12], 7170 µM. Besides, the TGI was 37.7 µM and 11.1 µM in assay [10]; 28.6 µM and 3.32 µM in [11]; 25 µM in assay [6]; > 25 µM in [9].
For `CC12CCC(C(=O)OC1=O)C(C)(C)O2` (stereo not drawn), the TGI in assay [1], in assay [3], in assay [4], in assay [5], in [6] and in assay [7] was > 100 µM throughout. For the same compound, the TGI in assay [8], in assay [9] and in assay [12] was > 100 µM in each case.
On to `NC(=O)NN=C(CS)CS`, for which the TGI in assay [10] amounted to 87.5 µM; in assay [2], 51.9 µM; in assay [3] it was 40.3 µM; in [7], 71.9 µM; in assay [8] it was 52.3 µM; in assay [12], 72.5 µM.
`CN(C)c1ccc(/C=N\NC(=O)CSCC(=O)N/N=C/c2ccc(N(C)C)cc2)cc1`: the TGI in assay [13] was > 100 µM; in assay [1] it was > 100 µM; in assay [2], 53.2 µM; in [3], > 100 µM; in [4], > 100 µM; in assay [5], > 100 µM. Moreover, the TGI was > 100 µM in assay [7], > 100 µM in [8], 88.6 µM in assay [9] and > 100 µM in [12].
Turning to `COc1ccc([C@@H]2ON(C)[C@H]3CN(C)C(=O)[C@@H]23)cc1`, the TGI in [1], in [2], in assay [3], in assay [4], in [6] and in [7] was > 100 µM throughout. In addition, the TGI in [8] and in assay [9] was > 100 µM throughout.
In the case of `CCCCCCCSc1nc2c(C(=O)OCC)ncn2c2ccccc12`, the concentration for total growth inhibition (TGI) in assay [10], in [2], in assay [3], in assay [11], in assay [4] and in [12] was > 100 µM in each case.
